In article PMC3125470 (Biochemistry, 2011):

Target: T1, MsPat (MSMEG_5458) (Mycolicibacterium smegmatis, UniProt A0R3F9)
T1 sequence (A0R3F9 1-333): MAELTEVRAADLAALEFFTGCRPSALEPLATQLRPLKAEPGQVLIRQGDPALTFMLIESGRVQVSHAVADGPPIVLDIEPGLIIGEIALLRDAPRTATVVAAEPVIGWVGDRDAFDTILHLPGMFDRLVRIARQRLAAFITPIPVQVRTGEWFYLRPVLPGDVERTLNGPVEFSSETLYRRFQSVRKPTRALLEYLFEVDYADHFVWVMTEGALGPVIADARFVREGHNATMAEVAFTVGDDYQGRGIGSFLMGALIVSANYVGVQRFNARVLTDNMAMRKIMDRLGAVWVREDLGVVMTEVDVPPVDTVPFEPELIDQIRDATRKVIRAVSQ
Assay: fluorescent labeling of ACS and time-dependent ACS inactivation
Format: biochemical
Conditions: 1 mM cGMP in place of cAMP; weak activator, allosteric

Structure (SMILES): Nc1nc2c(ncn2[C@@H]2O[C@@H]3COP(=O)(O)O[C@H]3[C@H]2O)c(=O)[nH]1 [cGMP]
- fluorescent labeling of ACS and time-dependent ACS inactivation: Much weaker labeling of ACS was observed when cAMP was replaced with cGMP
